According to US7259011B2, “Pluripotent adult stem cells” (priority 2004, dated 2007):
Like-named read-outs stand apart in the source and are kept apart here.

Tested on: PPASCs
Source text: PPASCs were thawed or trypsinized from expansion cultures and plated at 20,000 cells per 16 mm well in 24-well gelatin-coated culture plates (Corning Glass Works, Corning, N.Y.). All wells contained EMEM and 10% pre-selected horse serum. The control group remained in this medium, while the experimental wells contained media supplemented with dexamethasone (Sigma). Dexamethasone used were logarithmic concentrations from 10^−10 to 10^−6 M. Cultures were fixed and assayed for phenotypes at one-week intervals up to five weeks.
The immunohistochemical protocol typically used was adopted from Romero-Ramos et al. (2002)^3:
8) 0.25 ml of the primary antibody in PBS was added for 60 minutes at 37° C. • Antibodies used: Table 2
10) A second blocking step of 1% Goat Serum in PBS with 0.5% Tween was performed for 20 minutes preceding the addition of the secondary antibody. • 11) The cells received 0.25 ml of horse-radish peroxidase conjugated IgG secondary antibody that was diluted with PBS to a concentration of 1:1500 or secondary antibody conjugated with either FITC or TRITC fluorochrome. • 12) After 30 minutes of incubation at 37° C. with the secondary antibody, the wells were rinsed with PBS five times. If the secondary antibody was conjugated to fluorochrome, photographs were taken after this step. • 13) 0.25 ml of True Blue or DAB solution was added and light protected for up to 20 minutes. • 14) Five rinses of dH2O followed. • 15) Photographs were taken on an Olympus Inverted Scope Model IMT light microscope.

SMILES: C[C@@H]1C[C@H]2[C@@H]3CCC4=CC(=O)C=C[C@]4(C)[C@@]3(F)[C@@H](O)C[C@]2(C)[C@@]1(O)C(=O)CO [dex, dexamethasone]
- concentration at which cells containing vesicles (Sudan Black B stained, adipocytes) were observed: 10^−9 to 10^−6 M
- concentration at which induction of endothelial cells reproducibly occurred: ≥ 10^−8 M
- concentration giving the highest quantity of hepatocytes: 10^−8 M
- AFP stained cells (liver; α-fetoprotein) (10^−6 M dex): + (+ = 1–5 cells seen per culture well.)
- CIICI stained cells (cartilage; type II collagen) (10^−6 M dex): − (− = no stained cells seen per culture well.)
- CNPase stained cells (glial cells) (10^−6 M dex): − (− = no stained cells seen per culture well.)
- CT3 stained cells (cardiac muscle; cardiac troponin T) (10^−6 M dex): + (+ = 1–5 cells seen per culture well.)
- Desmin stained cells (myogenic precursor cells) (10^−6 M dex): + (+ = 1–5 cells seen per culture well.)
- GFAP stained cells (astrocytes) (10^−6 M dex): − (− = no stained cells seen per culture well.)
- IA4 stained cells (smooth muscle; α-smooth muscle actin) (10^−6 M dex): + (+ = 1–5 cells seen per culture well.)
- IL-1β stained cells (10^−6 M dex): + (+ = 1–5 cells seen per culture well.)
- LDL uptake (fluorescent labeled acetylated low density lipoprotein, 20 min) (10^−6 M dex): ++ (++ = 5–10 cells observed per culture well.)
- MF-20 stained cells (skeletal muscle; heavy chain of myosin) (10^−6 M dex): − (− = no stained cells seen per culture well.)
- MPIII stained cells (bone; osteopontin) (10^−6 M dex): − (− = no stained cells seen per culture well.)
- P2B1 stained cells (endothelial cells) (10^−6 M dex): ++ (++ = 5–10 cells observed per culture well.)
- P4A4 stained cells (endothelial cells) (10^−6 M dex): + (+ = 1–5 cells seen per culture well.)
- Sudan Black B stained cells (fat) (10^−6 M dex): ++ (++ = 5–10 cells observed per culture well.)
- Talin stained cells (fibroblasts) (10^−6 M dex): − (− = no stained cells seen per culture well.)
- Trop I stained cells (cardiac muscle; cardiac troponin I) (10^−6 M dex): + (+ = 1–5 cells seen per culture well.)
- WVIDI stained cells (bone; bone sialoproteins I and II) (10^−6 M dex): − (− = no stained cells seen per culture well.)
- AFP stained cells (liver; α-fetoprotein) (10^−7 M dex): ++ (++ = 5–10 cells observed per culture well.)
- CIICI stained cells (cartilage; type II collagen) (10^−7 M dex): + (+ = 1–5 cells seen per culture well.)
- CNPase stained cells (glial cells) (10^−7 M dex): − (− = no stained cells seen per culture well.)
- CT3 stained cells (cardiac muscle; cardiac troponin T) (10^−7 M dex): ++ (++ = 5–10 cells observed per culture well.)
- Desmin stained cells (myogenic precursor cells) (10^−7 M dex): + (+ = 1–5 cells seen per culture well.)
- GFAP stained cells (astrocytes) (10^−7 M dex): − (− = no stained cells seen per culture well.)
- IA4 stained cells (smooth muscle; α-smooth muscle actin) (10^−7 M dex): ++ (++ = 5–10 cells observed per culture well.)
- IL-1β stained cells (10^−7 M dex): + (+ = 1–5 cells seen per culture well.)
- LDL uptake (fluorescent labeled acetylated low density lipoprotein, 20 min) (10^−7 M dex): ++ (++ = 5–10 cells observed per culture well.)
- MF-20 stained cells (skeletal muscle; heavy chain of myosin) (10^−7 M dex): − (− = no stained cells seen per culture well.)
- MPIII stained cells (bone; osteopontin) (10^−7 M dex): + (+ = 1–5 cells seen per culture well.)
- P2B1 stained cells (endothelial cells) (10^−7 M dex): + (+ = 1–5 cells seen per culture well.)
- P4A4 stained cells (endothelial cells) (10^−7 M dex): + (+ = 1–5 cells seen per culture well.)
- Sudan Black B stained cells (fat) (10^−7 M dex): ++ (++ = 5–10 cells observed per culture well.)
- Talin stained cells (fibroblasts) (10^−7 M dex): ++ (++ = 5–10 cells observed per culture well.)
- Trop I stained cells (cardiac muscle; cardiac troponin I) (10^−7 M dex): + (+ = 1–5 cells seen per culture well.)
- WVIDI stained cells (bone; bone sialoproteins I and II) (10^−7 M dex): + (+ = 1–5 cells seen per culture well.)
- AFP stained cells (liver; α-fetoprotein) (10^−8 M dex): + (+ = 1–5 cells seen per culture well.)
- CIICI stained cells (cartilage; type II collagen) (10^−8 M dex): ++ (++ = 5–10 cells observed per culture well.)
- CNPase stained cells (glial cells) (10^−8 M dex): + (+ = 1–5 cells seen per culture well.)
- CT3 stained cells (cardiac muscle; cardiac troponin T) (10^−8 M dex): + (+ = 1–5 cells seen per culture well.)
- Desmin stained cells (myogenic precursor cells) (10^−8 M dex): + (+ = 1–5 cells seen per culture well.)
- GFAP stained cells (astrocytes) (10^−8 M dex): − (− = no stained cells seen per culture well.)
- IA4 stained cells (smooth muscle; α-smooth muscle actin) (10^−8 M dex): + (+ = 1–5 cells seen per culture well.)
- IL-1β stained cells (10^−8 M dex): + (+ = 1–5 cells seen per culture well.)
- LDL uptake (fluorescent labeled acetylated low density lipoprotein, 20 min) (10^−8 M dex): + (+ = 1–5 cells seen per culture well.)
- MF-20 stained cells (skeletal muscle; heavy chain of myosin) (10^−8 M dex): + (+ = 1–5 cells seen per culture well.)
- MPIII stained cells (bone; osteopontin) (10^−8 M dex): + (+ = 1–5 cells seen per culture well.)
- P2B1 stained cells (endothelial cells) (10^−8 M dex): − (− = no stained cells seen per culture well.)
- P4A4 stained cells (endothelial cells) (10^−8 M dex): + (+ = 1–5 cells seen per culture well.)
- Sudan Black B stained cells (fat) (10^−8 M dex): + (+ = 1–5 cells seen per culture well.)
- Talin stained cells (fibroblasts) (10^−8 M dex): ++ (++ = 5–10 cells observed per culture well.)
- Trop I stained cells (cardiac muscle; cardiac troponin I) (10^−8 M dex): + (+ = 1–5 cells seen per culture well.)
- WVIDI stained cells (bone; bone sialoproteins I and II) (10^−8 M dex): + (+ = 1–5 cells seen per culture well.)
- AFP stained cells (liver; α-fetoprotein) (10^−9 M dex): + (+ = 1–5 cells seen per culture well.)
- CIICI stained cells (cartilage; type II collagen) (10^−9 M dex): + (+ = 1–5 cells seen per culture well.)
- CNPase stained cells (glial cells) (10^−9 M dex): ++ (++ = 5–10 cells observed per culture well.)
- CT3 stained cells (cardiac muscle; cardiac troponin T) (10^−9 M dex): − (− = no stained cells seen per culture well.)
- Desmin stained cells (myogenic precursor cells) (10^−9 M dex): ++ (++ = 5–10 cells observed per culture well.)
- GFAP stained cells (astrocytes) (10^−9 M dex): ++ (++ = 5–10 cells observed per culture well.)
- IA4 stained cells (smooth muscle; α-smooth muscle actin) (10^−9 M dex): − (− = no stained cells seen per culture well.)
- IL-1β stained cells (10^−9 M dex): − (− = no stained cells seen per culture well.)
- LDL uptake (fluorescent labeled acetylated low density lipoprotein, 20 min) (10^−9 M dex): − (− = no stained cells seen per culture well.)
- MF-20 stained cells (skeletal muscle; heavy chain of myosin) (10^−9 M dex): + (+ = 1–5 cells seen per culture well.)
- MPIII stained cells (bone; osteopontin) (10^−9 M dex): + (+ = 1–5 cells seen per culture well.)
- P2B1 stained cells (endothelial cells) (10^−9 M dex): − (− = no stained cells seen per culture well.)
- P4A4 stained cells (endothelial cells) (10^−9 M dex): − (− = no stained cells seen per culture well.)
- Sudan Black B stained cells (fat) (10^−9 M dex): − (− = no stained cells seen per culture well.)
- Talin stained cells (fibroblasts) (10^−9 M dex): + (+ = 1–5 cells seen per culture well.)
- Trop I stained cells (cardiac muscle; cardiac troponin I) (10^−9 M dex): − (− = no stained cells seen per culture well.)
- WVIDI stained cells (bone; bone sialoproteins I and II) (10^−9 M dex): + (+ = 1–5 cells seen per culture well.)
- AFP stained cells (liver; α-fetoprotein) (10^−10 M dex): − (− = no stained cells seen per culture well.)
- CIICI stained cells (cartilage; type II collagen) (10^−10 M dex): − (− = no stained cells seen per culture well.)
- CNPase stained cells (glial cells) (10^−10 M dex): ++ (++ = 5–10 cells observed per culture well.)
- CT3 stained cells (cardiac muscle; cardiac troponin T) (10^−10 M dex): − (− = no stained cells seen per culture well.)
- Desmin stained cells (myogenic precursor cells) (10^−10 M dex): + (+ = 1–5 cells seen per culture well.)
- GFAP stained cells (astrocytes) (10^−10 M dex): + (+ = 1–5 cells seen per culture well.)
- IA4 stained cells (smooth muscle; α-smooth muscle actin) (10^−10 M dex): − (− = no stained cells seen per culture well.)
- IL-1β stained cells (10^−10 M dex): − (− = no stained cells seen per culture well.)
- LDL uptake (fluorescent labeled acetylated low density lipoprotein, 20 min) (10^−10 M dex): − (− = no stained cells seen per culture well.)
- MF-20 stained cells (skeletal muscle; heavy chain of myosin) (10^−10 M dex): + (+ = 1–5 cells seen per culture well.)
- MPIII stained cells (bone; osteopontin) (10^−10 M dex): + (+ = 1–5 cells seen per culture well.)
- P2B1 stained cells (endothelial cells) (10^−10 M dex): − (− = no stained cells seen per culture well.)
- P4A4 stained cells (endothelial cells) (10^−10 M dex): − (− = no stained cells seen per culture well.)
- Sudan Black B stained cells (fat) (10^−10 M dex): − (− = no stained cells seen per culture well.)
- Talin stained cells (fibroblasts) (10^−10 M dex): − (− = no stained cells seen per culture well.)
- Trop I stained cells (cardiac muscle; cardiac troponin I) (10^−10 M dex): − (− = no stained cells seen per culture well.)
- WVIDI stained cells (bone; bone sialoproteins I and II) (10^−10 M dex): + (+ = 1–5 cells seen per culture well.)
- Von Kossa's stain of multilayered nodules (mineral) (after 3 weeks of treatment): mineralized
- Alcian blue pH 1.0 staining (cartilage) (pH 1): sulfated proteoglycans were detected
